# Values quoted from earlier work as cited in US12274789B2, “Oral compositions comprising methylprednisolone sodium succinate” (LABOMED PHARMACEUTICAL COMPANY S.A., priority 2018, dated 2025).
# Details: versus prednisolone
structure (smiles),measurement,value
"C[C@H]1C[C@@H]2[C@H]([C@@H](O)C[C@@]3(C)[C@H]2CC[C@]3(O)C(=O)COC(=O)CCC(=O)[O-])[C@@]2(C)C=CC(=O)C=C12.[Na+] [methylprednisolone sodium succinate, pregna-1,4-diene-3,20dione,21-(3-carboxy-1-oxopropoxy)-11,17-dihydroxy-6-methyl-monosodium salt, (6α, 11β)]","anti-inflammatory potency, ratio to prednisolone",5 to 4
